Experimental data as given in US20160331783A1, “BISAMIDE COMPOUNDS AS ALLOSTERIC EFFECTORS FOR REDUCING THE OXYGEN-BINDING AFFINITY OF HEMOGLOBIN” (THE GENERAL HOSPITAL CORPORATION, priority 2014, published 2016).
Non-standard residues stand in square brackets, D forms with d. Residues, ends and D or L forms follow the SMILES beside them. dNMeBip = CN[C@H](Cc1ccc(-c2ccccc2)cc1)C(=O)O

Columns and labels:
[1] = target: T1, purified human hemoglobin (Homo sapiens, UniProt P68871); assay: Oxygen dissociation curve (ODC) of purified hemoglobin, Hemox analyzer, P50; assay type: biochemical; settings: for P50 with purified hemoglobin: hemoglobin 20 μM, tested compound 120 μM, purified hemoglobin alone 17 Torr
T1 construct: For experiments with purified hemoglobin, hemoglobin (20 μM as tetramer) was dissolved in DPBS
T1 sequence (P68871 2-147 limits assumed): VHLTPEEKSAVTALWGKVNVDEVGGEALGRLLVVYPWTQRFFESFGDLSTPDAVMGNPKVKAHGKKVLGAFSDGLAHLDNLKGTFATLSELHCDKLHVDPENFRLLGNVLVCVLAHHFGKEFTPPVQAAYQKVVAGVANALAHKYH
T1 sequence (P69905 2-142 partner limits assumed): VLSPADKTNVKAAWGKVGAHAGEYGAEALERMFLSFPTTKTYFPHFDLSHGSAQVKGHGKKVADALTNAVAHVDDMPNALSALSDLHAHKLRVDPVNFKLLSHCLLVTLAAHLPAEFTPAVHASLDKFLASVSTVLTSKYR
Procedure: (§1) The ODC of hemoglobin was measured with a Hemox analyzer (TCS Scientific Corporation) at 37° C. For experiments with purified hemoglobin, hemoglobin (20 μM as tetramer) was dissolved in DPBS and antifoam (0.2 vol %, Catalog No. AFA-25, TCS Scientific Corporation) was added to prevent foaming of the sample. Compounds were prepared in DMSO stock solutions then added to hemoglobin. The final concentration of DMSO was adjusted to 5 vol %. For experiments with RBCs, blood was drawn from volunteers into EDTA tubes. The blood was centrifuged for 15 min at 3,000 rpm at 4° C. The supernatant was discarded, and RBCs were washed three times with DPBS, pH 7.4 by dilution to 50% hematocrit. The washed RBCs were then diluted with Hemox solution (mixture of N-[Tris(hydroxymethyl)methyl]-2-aminoethanesulfonic acid (TES, 30 mM), sodium chloride (135 mM), and potassium chloride (5 mM) in water (pH 7.4), TCS Scientific Corporation), and mixed with the test compound stock solutions. When known allosteric effectors NEM (400 μM), 5HMF (2 mM) or formamidine disulfide (400 μM) were mixed with RBCs (20 μM as hemoglobin tetramer) for 1 h at 37° C., P50 was reduced to 8 Torr, 9 Torr, and 9 Torr respectively, which correlated with previous reports (see Garel et al., European Journal of Biochemistry, 1982, 123, 513-519). Data was analyzed by two-tailed, unpaired Student's t test using Microsoft Excel 2007.
A saturating effect on P50 was first determined by adding an increasing concentration of 2,3-DPG and IHP. No increase of P50 of hemoglobin was observed after an addition of a 30-fold molar excess of 2,3-DPG or IHP to hemoglobin. Hemoglobin (20 μM as tetramer) was pre-incubated with either 2,3-DPG (600 μM) or IHP (600 μM) followed by addition of Compound 1 (0, 50, 100, 150 and 200 μM) to the hemoglobin.

hemoglobin [2] = target: T2, hemoglobin (Homo sapiens, UniProt P68871); assay: Small molecule microarray (SMM) binding to hemoglobin; settings: hemoglobin 1 μg/mL, antibody detection
T2 construct: incubated in a TBS-T solution containing purified hemoglobin (1 μg/mL)
T2 sequence (P68871 2-147 limits assumed): as the sequence (P68871 2-147 limits assumed) above
T2 sequence (P69905 2-142 partner limits assumed): as the sequence (P69905 2-142 partner limits assumed) above
Procedure: Test compounds were affixed to SMM slides with isocyanate-functionalized surfaces as described in Casalena et al., Methods in molecular biology, 2012, 803, 249-263. Pre-incubating the SMMs with albumin blocked non-specific binding of the compounds to SMMs. Compounds binding to hemoglobin were detected on the SMMs using a fluorescent dye-conjugated antibodies specific for hemoglobin. The assay was validated by confirming the binding of hemoglobin to 2,3-DPG affixed on SMMs.
Each slide contained 48 “blocks”, and each block contained approximately 100 unique surface-immobilized small molecules. Compounds were printed in duplicate, and each slide was screened in duplicate, resulting in four replicates for every test compound. SMM slides were blocked by incubating them in a TBS-T solution (Tween 20, 0.01 vol %) containing bovine serum albumin (BSA, 0.1 wt %) for 30 min. […]
Using SMM Hits-Analyzer software (Broad Institute), the measured fluorescent signal of the foreground of a given spot (F) was divided by its local background (B) resulting in a calculated F/B ratio for each spot on which the test compounds were affixed. The F/B ratios were fitted to a Cauchy distribution plot for every block on the slide, and “positive” hits were determined using a p-value threshold of 7%. […]

RBCs = assay: Hemolysis of RBCs / blood on incubation with compound; assay type: cell-based, human; design: key to Hemolysis of whole blood (P50 of whole blood column): c: does not hemolyze; settings: for Hemolysis of diluted human blood: diluted human blood 50 μM, compound/Hb tetramer 30/1 mol/mol (1.5 mM), FIG. 9; for Hemolysis of whole blood (P50 of whole blood column): hemoglobin 20 μM, tested compound 120 μM
[3] = tested on: human red blood cells (RBCs) / whole blood; assay: Oxygen dissociation curve (ODC) of RBCs / whole blood, Hemox analyzer, P50; assay type: cell-based; settings: for P50 of RBCs: RBCs 20 μM as hemoglobin tetramer, 1 h at 37° C.; for P50 of whole blood: hemoglobin 20 μM, tested compound 120 μM, whole blood alone 26 Torr
Procedure: as §1

hemoglobin [4] = target: T2, hemoglobin; assay: Hemoglobin oxygen-binding assay (oxyHb % by spectrophotometry at controlled FO2); assay type: biochemical; settings: allosteric effector to hemoglobin tetramer 6 to 1 (mol/mol)
Procedure: Test compounds (0.75 μL, 10 mM in DMSO) were added to the central area of two 384 deep well plates forming compound plates. DPBS was used as the solvent for myo-inositol hexaphosphate (IHP) and N-ethylmaleimide (NEM) (10 mM). To prevent oxidation of hemoglobin during the experiment, glucose-6-phosphate (0.4 mg/mL), glucose-6-phosphate dehydrogenase (1.0 U/mL), nicotinamide adenine dinucleotide phosphate (NADP, 0.05 mg/mL), ferredoxin (0.01 mg/mL), ferredoxin-NADP reductase (0.01 U/mL) and catalase (2×10^3 U/mL) were added to hemoglobin to produce the Hayashi reducing system, which is described in detail in Hayashi et al., Biochemica et Biophysica Acta, 1973, 310, 309-316. […]
The alteration of hemoglobin's oxygen-binding affinity by the test compounds binding to hemoglobin was evaluated in an environment where the fractional oxygen pressure (FO2) could be precisely measured and controlled. […] To confirm the allosteric effect of the test compounds, ODC of hemoglobin was measured in the presence and absence of each compound. […]
The ability of small molecules to alter the oxygen affinity of hemoglobin was determined by measuring the fraction of oxygenated hemoglobin (oxyHb %) and oxidized hemoglobin (metHb %) using spectrophotometry under three (high, medium, and low oxyHb saturation) conditions. […]

In the case of `CC(=O)N(C)[C@@H](Cc1ccccc1)C(=O)N[C@H](Cc1c[nH]c2ccccc12)C(=O)O` (stereo in doubt) [Compound 5, (R)-3-(1H-indol-3-yl)-2-((S)-2-(N-methylacetamido)-3-phenylpropanamido)propanoic acid], the “P50 with purified hemoglobin” value [1] is reported as 18 Torr.

In the case of `O=C(O)C(COP(=O)(O)O)OP(=O)(O)O` (stereo not drawn) [2,3-DPG, 2,3-diphosphoglycerate, reference compound], the P50 of hemoglobin ([1]; hemoglobin 20 μM tetramer, compound 200 μM, DPBS pH 7.4, 5 vol % DMSO, 37° C., hemoglobin alone 17 Torr) is reported as 19±0.1 Torr, the “P50 of hemoglobin with 2,3-DPG” value ([1]; hemoglobin 20 μM, 2,3-DPG 600 μM (pre-saturated), no Compound 1) is reported as 23±0.7 Torr and the “Binding of hemoglobin to compound affixed on SMMs” value (hemoglobin [2]) is reported as “binding”.

In the case of `Cc1cc(C)cc(C(=O)N(C)[C@H](Cc2ccccc2)C(=O)N[C@@H](Cc2c[nH]c3ccccc23)C(=O)O)c1` [Compound 2, (S)-3-(1H-indol-3-yl)-2-((R)-3-phenyl-2-(N,3,5-trimethylbenzamido)propanamido)propanoic acid], the “Hemolysis of diluted human blood” value (RBCs) is reported as “without hemolysis”, the “Increase of P50 of hemoglobin, dose dependence” value ([1]; FIG. 3, FIG. 6-7) is reported as “concentration-dependent” and the “P50 with purified hemoglobin” value [1] is reported as 20 Torr. For the same compound, the “Oxygen affinity of red blood cells (RBCs)” value ([3]; human blood, FIG. 9) was “increased”.

In the case of `CC(=O)N(C)[C@H](Cc1ccc(-c2ccccc2)cc1)C(=O)N[C@@H](Cc1c[nH]c2ccccc12)C(=O)O` [Compound 4, (S)-2-((R)-3-([1,1′-biphenyl]-4-yl)-2-(N-methylacetamido)propanamido)-3-(1H-indol-3-yl)propanoic acid] (Ac-[dNMeBip]-Trp-OH), the “P50 with purified hemoglobin” value [1] is reported as 20 Torr.

For `O=Cc1ccc(CO)o1` [Compound 5HMF, reference compound], the “P50 of RBCs” value ([3]; allosteric effector 2 mM) was 9 Torr.

With `Cc1cc(C)cc(C(=O)NC(Cc2ccc(-c3ccccc3)cc2)C(=O)NCC(=O)O)c1` (stereo not drawn) [Compound 8, 2-(3-([1,1′-biphenyl]-4-yl)-2-(3,5-dimethylbenzamido)propanamido)acetic acid] the “Hemolysis of whole blood (P50 of whole blood column)” value (from here on “Hemolysis of whole blood”) (RBCs) was “c”, the “P50 with purified hemoglobin” value [1] was 48 Torr and the “P50 of whole blood” value [3] was 32 Torr.

In the case of `Cc1cc(C)cc(C(=O)N(C)C(Cc2ccc(-c3ccccc3)cc2)C(=O)NCC(=O)O)c1` (stereo not drawn) [Compound 9, 2-(3-([1,1′-biphenyl]-4-yl)-2-(N,3,5-trimethylbenzamido)propanamido)acetic acid], the “Hemolysis of whole blood” value (RBCs) is reported as “c”, the “P50 with purified hemoglobin” value [1] is reported as 28 Torr and the “P50 of whole blood” value [3] is reported as 33 Torr.

For `Cc1cc(C)cc(C(=O)N(C)C(Cc2ccc(-c3ccccc3)cc2)C(=O)NC(C)(C)C(=O)O)c1` (stereo not drawn) [Compound 10, 2-(3-([1,1′-biphenyl]-4-yl)-2-(N,3,5-trimethylbenzamido)propanamido)-2-methylpropanoic acid], the “Hemolysis of whole blood” value (RBCs) was “c”, the “P50 with purified hemoglobin” value [1] was 23 Torr and the “P50 of whole blood” value [3] was 31 Torr.

For `O=P(O)(O)O[C@H]1[C@H](OP(=O)(O)O)[C@@H](OP(=O)(O)O)[C@H](OP(=O)(O)O)[C@@H](OP(=O)(O)O)[C@H]1OP(=O)(O)O` [IHP, myo-inositol hexaphosphate], the “Change of oxyHb %” value (hemoglobin [4]) was “decrease”.

With `CCN1C(=O)C=CC1=O` [NEM, N-ethylmaleimide, reference compound] the “Change of oxyHb %” value (hemoglobin [4]) was “increase” and the “P50 of RBCs” value ([3]; allosteric effector 400 μM) was 8 Torr.

For `Cc1cc(C)cc(NC(=O)Cc2ccc(OC(C)(C)C(=O)O)cc2)c1` [RSR-13, reference compound], the “Hemolysis of diluted human blood” value (RBCs) was “hemolysis”.

With `N=C(N)SSC(=N)N` [formamidine disulfide, reference compound] the “P50 of RBCs” value ([3]; allosteric effector 400 μM) was 9 Torr.
